Columns and labels:
[1] = target: T1, recombinantly produced rat receptor (1α,25-dihydroxyvitamin D receptor) (Rattus norvegicus, UniProt P13053); experiment: Competitive VDR binding; settings: FIGS. 1 and 2
T1 construct: made in house
T1 sequence (P13053 1-423): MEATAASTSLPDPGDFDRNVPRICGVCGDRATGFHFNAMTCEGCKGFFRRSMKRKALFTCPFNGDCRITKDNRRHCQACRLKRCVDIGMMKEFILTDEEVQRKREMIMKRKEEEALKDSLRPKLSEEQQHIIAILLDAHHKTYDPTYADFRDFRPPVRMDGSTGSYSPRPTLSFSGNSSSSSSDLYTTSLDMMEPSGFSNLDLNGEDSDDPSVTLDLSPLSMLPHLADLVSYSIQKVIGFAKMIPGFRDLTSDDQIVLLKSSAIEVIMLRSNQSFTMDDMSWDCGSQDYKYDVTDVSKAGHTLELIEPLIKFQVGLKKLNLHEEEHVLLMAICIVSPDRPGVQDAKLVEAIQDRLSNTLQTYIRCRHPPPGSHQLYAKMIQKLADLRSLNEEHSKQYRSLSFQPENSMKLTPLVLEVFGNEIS
Description: FIGS. 1 and 2—Competitive VDR Binding
Competitive binding of the analogs to the porcine intestinal receptor was carried out by the method described by Dame et al (Biochemistry 25, 4523-4534, 1986), except the recombinantly produced rat receptor was used as the receptor (see Vanhooke et al., Biochemistry, in press, 2004).

[2] = test system: intestinal calcium transport; experiment: Intestinal calcium transport, everted gut sac method; type: in vivo, Sprague-Dawley rats; settings: rats, four consecutive ip doses, FIG. 5
Description: (§1) FIGS. 5 and 6—Intestinal Calcium Transport and Bone Calcium Mobilization
(§2) Male, weanling Sprague-Dawley rats were placed on Diet 11 (0.47% Ca) diet+AEK for one week followed by Diet 11 (0.02% Ca)+AEK for 3 weeks. The rats were then switched to a diet containing 0.47% Ca for one week followed by two weeks on a diet containing 0.02% Ca. Dose administration began during the last week on 0.02% calcium diet. Four consecutive ip doses-were given approximately 24 hours apart. Twenty-four hours after the last dose, blood was collected from the severed neck and the concentration of serum calcium determined as a measure of bone calcium mobilization. The first 10 cm of the intestine was also collected for intestinal calcium transport analysis using the everted gut sac method.

[3] = test system: human leukemia cells (HL-60 cells); experiment: HL-60 cell differentiation (NBT reduction); type: cell-based; settings: NBT assay; for potency in promoting the differentiation of leukemia cells: HL-60 cells to monocytes, FIG. 3; for percent of HL-60 cells induced to differentiate: concentration 1×10^−7 M
Description: FIG. 3—EL-60 Cell Differentiation
The differentiation of HL-60 promyelocytic into monocytes was determined as described by Ostrem et al (J. Biol. Chem. 262, 14164-14171, 1987).
Differentiation activity was assessed by a standard differentiation assay, abbreviated as NBT reduction (nitroblue tetrazolium reduction). The assay was conducted according to known procedures, as given, for example, by DeLuca et al U.S. Pat. No. 4,717,721 and Ostrem et al, J. Biol. Chem. 262, 14164, 1987. For the assay, the differentiation activity of the test compounds is expressed in terms of the percent of HL-60 cells having differentiated to normal cells in response to a given concentration of test compound.

[4] = test system: bone calcium mobilization; experiment: Bone calcium mobilization (serum calcium); type: in vivo, Sprague-Dawley rats; settings: rats, four consecutive ip doses, FIG. 6
Description: as §1, §2

[5] = test system: 24-hydroxylase (24OHase) gene promoter; experiment: Transcription activation, 24-hydroxylase promoter luciferase reporter in ROS 17/2.8 (bone) cells; type: cell-based; settings: ROS 17/2.8 cells, luciferase 16 hours after dosing, FIG. 4
Description: FIG. 4—Transcription Activation
Transcriptional activity was measured in ROS 17/2.8 (bone) cells that were stably transfected with a 24-hydroxylase (24OHase) gene promoter upstream of a luciferase reporter gene (Arbour et al., 1998). Cells were given a range of doses. Sixteen hours after dosing the cells were harvested and luciferase activities were measured using a luminometer.
“RLU” in FIG. 4 refers to relative luciferase units.

activity in binding to the 1α,25-hydroxyvitamin D3 rat receptor [1]	Compound	intestinal calcium transport activity [2]	intestinal calcium transport activity compared with 2MD [2]	potency in promoting the differentiation of leukemia cells [3]	percent of HL-60 cells induced to differentiate [3]	ability to mobilize calcium from bone [4]	bone calcium mobilization compared with 2MD [4]	transcriptional activity in bone cells [5]
very active	(20S)-1α,25-dihydroxy-2-[3′-hydroxypropylidene]-19-norvitamin D3 [1AGS]	relatively high intestinal calcium transport activity	more active than 2M	as potent as 1α,25-dihydroxyvitamin D3 and 2MD	the same degree of differentiation	significant ability to mobilize calcium from bone	less active in this regard than 2MD	significant transcriptional activity
very active	(20R)-1α,25-dihydroxy-2-[3′-hydroxypropylidene]-19-norvitamin D3 [1AGR]	relatively high intestinal calcium transport activity	more active than 2M	as potent as 1α,25-dihydroxyvitamin D3 and 2MD	the same degree of differentiation	significant ability to mobilize calcium from bone	less active in this regard than 2MD	significant transcriptional activity
	C=C1/C(=C\C=C2/CCC[C@]3(C)[C@@H]([C@H](C)CCCC(C)(C)O)CC[C@@H]23)C[C@@H](O)C[C@@H]1O [1α,25-dihydroxyvitamin D3, reference compound]				~90%			
very active	2-[(3′-methoxymethoxy)propylidene]-19-nor-1α,25-dihydroxyvitamin D3 [F-Wit]	relatively high intestinal calcium transport activity	more active than 2M	as potent as 1α,25-dihydroxyvitamin D3 and 2MD	the same degree of differentiation	significant ability to mobilize calcium from bone	less active in this regard than 2MD	significant transcriptional activity

Reference: patent publication US20060293291A1, “2-Propylidene-19-nor-vitamin d compounds” (priority 2003, published 2006)
